Experimental data from patent US10017481B2, “Conformationally constrained, fully synthetic macrocyclic compounds” (POLYPHOR AG, priority 2012, dated 2018).
Converted amounts (≈) assume the structure as drawn. Where two headings read alike, the source gives them in different places.

How the values were obtained:
[1] = system: S. aureus ATCC 29213, ATCC 25923, DSM 11729, DSM 46320, S. aureus 39; test: Antimicrobial assay, broth microdilution MIC, S. aureus strains; format: cell-based; conditions: Staphylococcus aureus
Method: (§1) The antimicrobial activities of the compounds were determined in 96-well plates (Greiner, polystyrene) by the standard NCCLS broth microdilution method (National Committee for Clinical Laboratory Standards 1993. Methods for dilution antimicrobial susceptibility tests for bacteria that grow aerobically, 3rd ed. Approved standard M7-A6. National Committee for Clinical laboratory standards, Wayne, Pa.) with slight modifications. Inocula of the microorganisms were diluted into Mueller-Hinton II (MH, cation adjusted) broth+0.002% P-80 and compared with a 0.5 McFarland standard to give appr. 10^6 colony forming units (CFU)/mL. Aliquots (50 μl) of inoculate were added to 50 μl of MH broth+0.002% P-80 containing the compounds in serial two-fold dilutions. The following microorganisms were used to determine antibiotic selectivity of the compounds: S. pneumoniae DSM 20566 11A11, 3313A6, 704CG4B21, 82BERG72; S. aureus ATCC 29213, ATCC 25923, DSM 11729, DSM 46320, S. aureus 39. Antimicrobial activities of the compounds were expressed as the minimal inhibitory concentration (MIC) in μg/mL at which no visible growth was observed after 18-20 hours of incubation at 36° C.

[2] = system: S. pneumoniae DSM 20566 11A11, 3313A6, 704CG4B21, 82BERG72; test: Antimicrobial assay, broth microdilution MIC, S. pneumoniae strains; format: cell-based; conditions: Streptococcus pneumoniae, DSM20566
Method: as §1

[3] = strain ATCC 25923, read-out: MIC S. aureus ATCC 25923
[4] = strain ATCC 29213, read-out: MIC S. aureus ATCC 29213
[5] = strain DSM 11729, read-out: MIC S. aureus DSM 11729
[6] = strain S. aureus 39, read-out: MIC S. aureus 39
[7] = strain DSM 20566 (Table 32.7), read-out: MIC S. pneumoniae DSM 20566
[8] = strain 11A11, read-out: MIC S. pneumoniae 11A11
[9] = strain 82BERG72, read-out: MIC S. pneumoniae 82BERG72
[10] = strain 704CG4B21, read-out: MIC S. pneumoniae 704CG4B21
[11] = strain 3313A6, read-out: MIC S. pneumoniae 3313A6
[12] = strain DSM 20566 (Table 32.8), read-out: MIC S. pneumoniae DSM 20566

CC(C)(C)OC(=O)N[C@H]1C[C@H]2COc3cccc(c3)-c3ccccc3C(=O)NCC[C@@H](N)C(=O)N2C1 [Ex. 2, tert-butyl N-[(12R,16S,18S)-12-amino-8,13-dioxo-20-oxa-9,14-diazatetracyclo[19.3.1.0^2,7.0^14,18]pentacosa-1(25),2,4,6,21,23-hexaen-16-yl]carbamate]
MIC [1, 3]: 16 µg/mL (≈ 32.3 µM)
MIC [1, 4]: 8 to 16 µg/mL (≈ 16.2 to 32.3 µM)
MIC [1, 5]: 8 to 16 µg/mL (≈ 16.2 to 32.3 µM)
MIC [1, 6]: 4 µg/mL (≈ 8.09 µM)
MIC [2, 7]: 8 µg/mL (≈ 16.2 µM)

CC(C)(C)OC(=O)N[C@@H]1C[C@H]2COc3cccc(c3)-c3cncc(c3)C(=O)NCCNCC(=O)N2C1 [Ex. 91, tert-butyl N-[(9S,11R)-14,20-dioxo-7-oxa-13,16,19,23-tetraazatetracyclo[19.3.1.1^2,6.0^9,13]hexacosa-1(25),2(26),3,5,21,23-hexaen-11-yl]carbamate]
MIC [1, 3]: 4 µg/mL (≈ 8.07 µM)
MIC [1, 4]: 2 to 4 µg/mL (≈ 4.04 to 8.07 µM)
MIC [1, 5]: 2 µg/mL (≈ 4.04 µM)
MIC ([1]; strain DSM 46320, read-out: MIC S. aureus DSM 46320): 4 µg/mL (≈ 8.07 µM)
MIC [1, 6]: 8 µg/mL (≈ 16.1 µM)
MIC [2, 7]: > 16 µg/mL

N[C@H]1C[C@H]2COc3cc(F)cc(c3)-c3csc(c3)C(=O)N[C@H](C(=O)Nc3ccccc3)COCCCCC(=O)N2C1 [Ex. 247, (8S,18S,20S)-18-amino-25-fluoro-6,15-dioxo-N-phenyl-10,22-dioxa-4-thia-7,16-diazatetracyclo[21.3.1.1^2,5.0^16,20]octacosa-1(27),2,5(28),23,25-pentaene-8-carboxamide]
MIC [2, 8]: 16 µg/mL (≈ 27.6 µM)
MIC [2, 9]: 8 µg/mL (≈ 13.8 µM)
MIC [2, 10]: 16 µg/mL (≈ 27.6 µM)
MIC [2, 11]: 16 µg/mL (≈ 27.6 µM)
MIC [2, 12]: 16 µg/mL (≈ 27.6 µM)

N[C@H]1C[C@H]2COc3cc(F)cc(c3)-c3csc(c3)C(=O)N[C@H](C(=O)Nc3ccc(Cl)cc3)COCCCCC(=O)N2C1 [Ex. 257, (8S,18S,20S)-18-amino-N-(4-chlorophenyl)-25-fluoro-6,15-dioxo-10,22-dioxa-4-thia-7,16-diazatetracyclo[21.3.1.1^2,5.0^16,20]octacosa-1(27),2,5(28),23,25-pentaene-8-carboxamide]
MIC [2, 8]: 8 µg/mL (≈ 13 µM)
MIC [2, 9]: 2 µg/mL (≈ 3.25 µM)
MIC [2, 10]: 8 µg/mL (≈ 13 µM)
MIC [2, 11]: 8 µg/mL (≈ 13 µM)
MIC [2, 12]: 8 µg/mL (≈ 13 µM)

Cc1cccc(NC(=O)[C@@H]2COCCCCC(=O)N3C[C@@H](N)C[C@H]3COc3cc(F)cc(c3)-c3csc(c3)C(=O)N2)c1 [Ex. 259, (8S,18S,20S)-18-amino-25-fluoro-N-(3-methylphenyl)-6,15-dioxo-10,22-dioxa-4-thia-7,16-diazatetracyclo[21.3.1.1^2,5.0^16,20]octacosa-1(27),2,5(28),23,25-pentaene-8-carboxamide]
MIC [2, 8]: 16 µg/mL (≈ 26.9 µM)
MIC [2, 9]: 4 µg/mL (≈ 6.73 µM)
MIC [2, 10]: 8 µg/mL (≈ 13.5 µM)
MIC [2, 11]: 8 µg/mL (≈ 13.5 µM)
MIC [2, 12]: 8 µg/mL (≈ 13.5 µM)
